The values that follow come from patent US20150148256A1, “BIOLUMINESCENCE IMAGING-BASED SCREENING ASSAY AND INHIBITORS OF ABCG2” (THE JOHNS HOPKINS UNIVERSITY, priority 2008, published 2015).

Molecules are shown by their SMILES. Like-named read-outs stand apart in the source and are kept apart here.

In series [1] the test system is ABCG2-overexpressing NCI-H460/MX20 cells. The note with it: FTC positive control (10 μM), MTX 15 or 30 μM, three days.
The target of series [2] is T1, ABCG2 (Homo sapiens, UniProt Q9UNQ0).
T1 sequence (Q9UNQ0 1-655): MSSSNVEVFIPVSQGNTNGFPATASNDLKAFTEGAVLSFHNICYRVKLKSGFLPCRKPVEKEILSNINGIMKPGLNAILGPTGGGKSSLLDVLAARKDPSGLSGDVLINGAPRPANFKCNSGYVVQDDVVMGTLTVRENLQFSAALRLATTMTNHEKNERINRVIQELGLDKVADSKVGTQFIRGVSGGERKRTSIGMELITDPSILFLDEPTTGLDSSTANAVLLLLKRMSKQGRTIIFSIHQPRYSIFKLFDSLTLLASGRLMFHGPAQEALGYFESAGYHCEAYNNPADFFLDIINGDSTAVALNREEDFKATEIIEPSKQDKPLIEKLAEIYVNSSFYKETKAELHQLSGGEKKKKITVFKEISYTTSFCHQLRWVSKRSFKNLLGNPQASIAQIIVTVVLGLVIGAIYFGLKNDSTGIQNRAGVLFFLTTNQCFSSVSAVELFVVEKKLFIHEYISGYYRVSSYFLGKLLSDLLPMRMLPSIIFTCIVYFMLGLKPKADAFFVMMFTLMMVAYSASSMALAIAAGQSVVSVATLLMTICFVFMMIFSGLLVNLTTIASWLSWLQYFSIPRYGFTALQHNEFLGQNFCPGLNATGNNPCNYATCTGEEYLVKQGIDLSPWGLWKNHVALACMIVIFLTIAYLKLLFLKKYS
The series can be described thus: Bioluminescence imaging (BLI) assay in HEK293/ABCG2/fLuc cells. Particulars: read-out: IC50 as an ABCG2 inhibitor (BLI); same assay, using the 30 min data. In short, it runs like this: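 Light output from HEK293/ABCG2/fLuc cells plated at 4×10^4 per well, treated with compounds, imaged every 5 min for ~1 h. Values are signal-to-background ratios versus solvent control at 40 min, indicating ABCG2 inhibition. Dose range 0.001 μM-100 μM with 50 μg/mL D-luciferin for selected compounds.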

Series [3] has as its target T1, ABCG2. Further details: expressed in transfected cells; host or cells: HEK293. The note with it: cited from earlier work.
Series [4] addresses T1, ABCG2. Also noted: expressed in transfected cells; host or cells: HEK293. The note with it: read-out: IC50, ability to inhibit ATPase, cited from earlier work.
In series [5] the target is T1, ABCG2. Also noted: expressed in transfected cells; host or cells: HEK293. The note with it: reference (23); read-out: IC50, pheophorbide A fluorescent dye uptake assay; cited from earlier work.

Take `COc1ccc2c3c([nH]c2c1)[C@H](C=C(C)C)N1C(=O)[C@@H]2CCCN2C(=O)[C@@H]1C3` [FTC, Fumitremorgin C]: the “resensitization of H460/MX20 cells to MTX” value in series [1] was “restored the sensitivity of H460/MX20 cells to MTX and significantly reduced their survival rate”. Besides, the IC50 in series [2] was 6600 nM; in series [3] (literature, read-out: IC50 values reported in literature) it was 300 to 1300 nM; in series [4] (Ozvegy et al. (21)), 1300 nM; in series [4] (Ozvegy et al. (22)) it was 400 nM; in series [4] (Robey et al. (13)), 1000 nM; in series [5] it was 800 nM. The “concentration at which the plateau of the ABCG2-inhibiting effect is reached” value in series [3] (previous reports) is 10 µM.

As usually defined, the IC50 is the concentration that gives 50% inhibition.
